In US7744927B2, “Methods of promoting hematopoietic and mesenchymal cell proliferation and differentiation” (University of Southern California, priority 1997, dated 2010):
Non-standard residues stand in square brackets, D forms with d. No end group written: not given here. Phe(4-NH2) = Nc1ccc(C[C@H](N)C(=O)O)cc1

What was measured:
[1] = tested on: human peripheral blood mononuclear cells (PBMC); test: Respiratory burst (hydrogen peroxide generation), human PBMC; format: cell-based; conditions: alone and in response to PMA 10 ng/ml; 4 hours exposure
Procedure: The respiratory burst of leukocytes (macrophages and polymorphonuclear neutrophils) is one component of the mediator system used to kill bacteria. As with phagocytosis, the level of this respiratory burst activity in resident macrophages is low. […] Studies were conducted to assess the effect of in vitro exposure of murine or rat peritoneal macrophages and human peripheral blood mononuclear cells (PBMC) to various concentrations of AII on the capacity to generate hydrogen peroxide via the respiratory burst system. For the human studies, five different donors were examined.
The murine or rat peritoneal cells were harvested by lavage with 5-15 ml of cold PBS with 0.5% bovine serum albumin. The human PBMC were harvested by venipuncture from normal human volunteers and isolated from peripheral blood by Ficoll Hypaque density centrifugation. After isolation, the cells were resuspended at 1×10^6 cells/ml and placed at 100 μl per well into 96 well plates. The cells were incubated with various concentrations of AII or AII analogues for 4 hours at 37° C. The cells were then preloaded with a fluorescent probe for hydrogen peroxide, 2,7 dichlorofluorescein acetate, which is nonfluorescent in the absence of hydrogen peroxide. Fifteen minutes later, 10 ng/ml of phorbol myristate acetate (+PMA) or PBS (−PMA) was added to stimulate the production of hydrogen peroxide. One hour after stimulation the level of fluorescence produced was measured on a Cytofluor 2350 multiwell fluorometer.

AT2 receptor = conditions: experimental models tested; cited from earlier work
[2] = tested on: Rat Peritoneal Macrophages; test: Phagocytosis of opsonized yeast by rat peritoneal macrophages; format: cell-based, Sprague Dawley rats
Procedure: Resident peritoneal macrophages have very little phagocytic activity. Exposure of macrophages to inflammatory or activating agents will increase this macrophage function. Resident peritoneal macrophages were harvested from C57B1/6 mice or Sprague Dawley rats and resuspended at a concentration of 1×10^6 cells/ml in phosphate buffered saline (PBS). Five separate 0.5 ml cell aliquots were placed on a glass coverslip in a 35 mm petri dish. Prior to incubation, either 0.5 ml of PBS, AII, or AII analogues or fragments at between 1-1000 ug/ml final concentration was added to the individual cover slips. The dishes containing the cover slips were then incubated at 37° C. for 4 hours, after which the cover slips were washed 3 to 6 times with PBS. Opsonized yeast particles (Sigma Chemical Co.) (yeast opsonized with adult serum from the same species as that under study) were added to the cover slips and incubated for 2 hours, after which the cover slips were again washed with PBS and inverted onto a glass slide. The number of macrophages that ingested yeast and the number of yeast per macrophage ingested was then determined microscopically. At least 100 macrophages per coverslip were counted. The data from this study are summarized in Tables 3 and 4 and FIGS. 1 and 2.

[3] = Test of AII fragments for effectiveness (method not described)

Row | Substance | ability to generate hydrogen peroxide (respiratory burst) [1] | binding characteristics (AT2 receptor) | #/Cell ([2]; peptide 100 μg/ml) | % w/Yeast ([2]; peptide 100 μg/ml) | Number of Macrophages with Yeast (Yeast Number) 0 ([2]; peptide 100 μg/ml) | Number of Macrophages with Yeast (Yeast Number) 1-3 ([2]; peptide 100 μg/ml) | Number of Macrophages with Yeast (Yeast Number) 4-6 ([2]; peptide 100 μg/ml) | #/Cell ([2]; peptide 1000 μg/ml) | % w/Yeast ([2]; peptide 1000 μg/ml) | Number of Macrophages with Yeast (Yeast Number) 1-3 ([2]; peptide 1000 μg/ml) | Number of Macrophages with Yeast (Yeast Number) 4-6 ([2]; peptide 1000 μg/ml) | effectiveness [3]
1 | Asp-Arg-Val-Tyr-Ile-His-Pro (DRVYIHP) [AII(1-7)] | an increase in the respiratory burst capacity was observed | – | – | – | – | – | – | – | – | – | – | –
2 | Asp-Arg-Val-Tyr-Ile-Xaa-Pro-Phe (DRVYI[Phe(4-NH2)]PF) [(p-NH2-Phe)6-AII] | – | comparable to AT2 antagonists | – | – | – | – | – | – | – | – | – | –
3 | DRPYIHPF [GSD 24B] | an increase in the respiratory burst capacity was observed | – | 0.58 | 23.1% | 100 | 25 | 5 | 0.18 | 9.1% | 10 | 0 | –
4 | DRVYIHPI [GSD 28] | an increase in the respiratory burst capacity was observed | – | 0.02 | 1.0% | 100 | 1 | 0 | – | – | – | – | –
5 | His-Pro-Phe (HPF) [AII(6-8)] | – | – | – | – | – | – | – | – | – | – | – | found not to be effective
6 | RVYAHPF [GSD 22A] | an increase in the respiratory burst capacity was observed | – | 0.59 | 23.7% | 100 | 26 | 5 | 0.40 | 18.7% | 22 | 1 | –
7 | Tyr-Ile-His-Pro-Phe (YIHPF; printed: Tyr-Ile-His-Pro-Phe) [AII(4-8)] | – | – | – | – | – | – | – | – | – | – | – | found not to be effective
